# From patent US20170332691A1, “NUTRITIONAL COMPOSITIONS COMPRISING SN-1 (3) MONOACYLGLYCEROLS FOR USE IN THE TREATMENT OF MALABSORPTION OR MALDIGESTION IN INFANTS OR YOUNG CHILDREN” (NESTEC S.A., priority 2014, published 2017)
# Experiments:
# [1] = lipid maldigestion or malabsorption rat model (XENICAL/Orlistat), EPA in red blood cells and tissues; assay type: in vivo; conditions: for level of EPA incorporated in red blood cells: rats fed with XENICAL, day 7 (FIG. 3)
# Description: The concept was tested in a lipid maldigestion or malabsorption rat model. The maldigestion or malabsorption condition was obtained using XENICAL® (ORLISTAT, tetrahydrolipstatin), a pancreatic and gastric lipases inhibitor. Rats were fed during 21 days with long-chain polyunsaturated fatty acid (LC-PUFA) supplements containing mainly eicosapentaenoic (EPA) acid. Fish oil was used as a source of triacylglycerols, and different EPA glycerides were evaluated: […] XENICAL® (ORLISTAT) was given at a level sufficient to decrease lipid absorption by 40%. A group receiving fish oil without XENICAL® (ORLISTAT) was used as a positive control. At different time intervals (D3, D7, […]), the fatty acid profiles of red blood cells and plasma lipids were determined. At the end of the experiment, the fatty acid profiles of different tissues were determined. The main objective was to follow the level of EPA in red blood cells and plasma lipids. The main comparison evaluated was the difference in EPA level between the group receiving EPA glycerides such as EPA-containing sn-1(3) MAG, in combination with XENICAL® (ORLISTAT) and the positive control group (fish oil+XENICAL® (ORLISTAT)).
# [2] = clinical study: sn-1(3) MAG vs fish oil (TAG) delivering EPA under XENICAL-induced lipid maldigestion; assay type: in vivo, human
# Description: This clinical study compared the efficacy of sn-1(3) MAG and fish oil (TAG) in delivering EPA in humans under lipid maldigestion conditions induced by XENICAL® (ORLISTAT). The comparison was tested in volunteers treated with XENICAL® to induce lipid maldigestion or not treated with XENICAL® (ORLISTAT). The primary objective was to assess accretion of EPA in erythrocytes over 21 days when consumed as fish oil (TAG) or sn-1(3) MAG. The secondary objectives were to assess accretion of EPA in plasma over 21 days and also to assess the pharmacokinetics of EPA after an acute dose either in the form of sn-1(3) MAG or TAG (AUC in chylomicrons over 10 hours postprandial). See FIG. 4 that describes the clinical study timeline.
SMILES,"level of EPA incorporated in red blood cells ([1]; compared with fish oil + XENICAL, all P values lower than 0.05)",level of EPA incorporated in red blood cells ([1]; compared with fish oil group without XENICAL),"incorporation of LC-PUFAs in tissue ([1]; rats with XENICAL, comparing groups A, B and C)","carrier for EPA (overall conclusion of the clinical trial) ([2]; human subjects treated with XENICAL, vs fish oil (TAG))","accretion of EPA in erythrocytes after 21 days (chronic effect) ([2]; humans, with XENICAL, in comparison to fish oil and XENICAL, p=0.0001 (FIG. 6))","accretion of EPA in plasma after 21 days (chronic effect) ([2]; humans, with XENICAL, relative to fish oil and XENICAL, p=0.0003 (FIG. 7))","EPA incorporation in red blood cells ([1]; rats fed fish oil with XENICAL vs fish oil without XENICAL, day 7)"
"CC/C=C\C/C=C\C/C=C\C/C=C\C/C=C\CCCC(=O)OCC(O)CO (stereo not shown) [Sn-1(3)-MAG-EPA, sn-1(3)-monoeicosapentaenoylglycerol]",statistically higher,even higher than the fish oil group,improved,better carrier for EPA than fish oil (TAG),statistically significant,statistically significant,
"CCCCCCCCCCC[C@@H](C[C@@H]1OC(=O)[C@H]1CCCCCC)OC(=O)[C@H](CC(C)C)NC=O [XENICAL® (ORLISTAT), tetrahydrolipstatin, reference compound]",,,,,,,decreases EPA incorporation in red blood cells
